Literature values, collected in patent publication US9446004B2, “Transdermal nicotine salt delivery system” (ALZA Corporation, priority 2005, dated 2016).
Like-named read-outs stand apart in the source and are kept apart here.

CN1CCCC1c1cccnc1 (centres unmarked) [Nicotine]
pKa (first pKa): about 8
pKa (second pKa): ~3
